Reference: patent US9981969B2, “Imidazole derivatives and methods of use thereof for improving the pharmacokinetics of a drug” (MERCK SHARP & DOHME CORP., priority 2013, dated 2018)

Tests used:
CYP2C9 = biological target: T1, CYP2C9 (Homo sapiens, UniProt P11712); experiment: Cocktail assay for CYPs in human liver microsomes, diclofenac 4′-hydroxylation (2C9); assay type: biochemical; settings: 5 μM diclofenac, 10 min at 37° C.
T1 construct: 0.1 mg/mL protein human liver microsomes (BD Gentest); tissue BD Gentest; host or cells: human liver microsomes
Summary of the method: (§1)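 Pooled human liver microsomes (0.1 mg/mL) with substrate cocktail (10 μM phenacetin, 5 μM diclofenac, 30 μM mephenytoin, 5 μM dextromethorphan), 1 mM NADPH, pH 7.4 phosphate, 10 min at 37 °C. Metabolites by LC/MS/MS; IC50 from % inhibition at 6 concentrations up to 10 μM.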

CYP2D6 = biological target: T2, CYP2D6 (Homo sapiens, UniProt P10635); experiment: Cocktail assay for CYPs in human liver microsomes, dextromethorphan O-demethylation (2D6); assay type: biochemical; settings: 5 μM dextromethorphan, 10 min at 37° C.
T2 construct: 0.1 mg/mL protein human liver microsomes (BD Gentest); tissue BD Gentest; host or cells: human liver microsomes
Summary of the method: as §1

CYP1A2 = biological target: T3, CYP1A2 (Homo sapiens, UniProt P05177); experiment: Cocktail assay for CYPs in human liver microsomes, phenacetin O-deethylation (1A2); assay type: biochemical; settings: 10 μM phenacetin, 10 min at 37° C.
T3 construct: 0.1 mg/mL protein human liver microsomes (BD Gentest); tissue BD Gentest; host or cells: human liver microsomes
T3 sequence (P05177 1-516): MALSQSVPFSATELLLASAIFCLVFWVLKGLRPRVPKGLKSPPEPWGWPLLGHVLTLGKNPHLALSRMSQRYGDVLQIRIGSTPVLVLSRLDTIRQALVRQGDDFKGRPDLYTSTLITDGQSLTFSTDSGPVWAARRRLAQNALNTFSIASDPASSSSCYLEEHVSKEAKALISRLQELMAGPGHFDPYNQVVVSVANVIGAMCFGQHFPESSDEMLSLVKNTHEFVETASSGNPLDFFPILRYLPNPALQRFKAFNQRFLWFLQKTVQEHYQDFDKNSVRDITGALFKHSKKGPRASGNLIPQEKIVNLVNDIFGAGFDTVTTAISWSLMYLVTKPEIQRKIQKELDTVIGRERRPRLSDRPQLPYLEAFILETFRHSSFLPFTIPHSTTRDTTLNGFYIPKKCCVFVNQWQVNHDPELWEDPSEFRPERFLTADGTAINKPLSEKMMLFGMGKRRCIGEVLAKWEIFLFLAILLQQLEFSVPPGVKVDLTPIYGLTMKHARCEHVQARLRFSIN
Summary of the method: as §1

CYP2C19 = biological target: T4, CYP2C19 (Homo sapiens, UniProt P33261); experiment: Cocktail assay for CYPs in human liver microsomes, mephenytoin 4′-hydroxylation (2C19); assay type: biochemical; settings: 30 μM mephenytoin, 10 min at 37° C.
T4 construct: 0.1 mg/mL protein human liver microsomes (BD Gentest); tissue BD Gentest; host or cells: human liver microsomes
Summary of the method: as §1

human CYP11B1 = biological target: T5, human CYP11B1 (Homo sapiens, UniProt P15538); experiment: IC50 vs CYP11B1 by measurement of cortisol synthesis in V79 cells; assay type: cell-based; settings: V79 cells expressing human CYP11B1, 1500 nM RSS, cortisol HTRF
T5 construct: expressed in transfected cells
T5 sequence (P15538 25-503): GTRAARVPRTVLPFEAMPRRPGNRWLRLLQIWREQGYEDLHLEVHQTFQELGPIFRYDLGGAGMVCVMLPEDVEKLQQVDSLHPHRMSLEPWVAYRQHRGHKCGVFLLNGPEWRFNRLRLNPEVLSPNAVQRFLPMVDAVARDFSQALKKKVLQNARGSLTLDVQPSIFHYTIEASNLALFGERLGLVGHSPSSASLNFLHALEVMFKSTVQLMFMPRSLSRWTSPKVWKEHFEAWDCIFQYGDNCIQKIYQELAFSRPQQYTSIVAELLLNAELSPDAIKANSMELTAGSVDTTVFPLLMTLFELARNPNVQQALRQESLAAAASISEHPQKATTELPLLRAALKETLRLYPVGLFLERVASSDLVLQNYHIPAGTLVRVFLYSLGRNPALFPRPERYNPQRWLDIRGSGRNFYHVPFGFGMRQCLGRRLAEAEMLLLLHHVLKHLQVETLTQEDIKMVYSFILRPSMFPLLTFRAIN
Summary of the method: (§2)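 V79 cells stably expressing CYP11B1 or CYP11B2 were treated with test compound at 10 concentrations (e.g. 10000 down to 0.5 nM), with 1500 nM RSS (CYP11B1) or 750 nM DOC (CYP11B2) as substrate. After ~15 h at RT in the dark, supernatant cortisol/aldosterone was measured by HTRF and back-calculated from a standard curve. IC50 was taken as the inflection point of a four-parameter fit.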

CYP3A4 = biological target: T6, CYP3A4 (Homo sapiens, UniProt P08684); experiment: Cocktail assay for CYPs in human liver microsomes, midazolam 1′-hydroxylation (3A4); assay type: biochemical; settings: 2 μM midazolam, 10 min at 37° C.
T6 construct: 0.1 mg/mL protein human liver microsomes (BD Gentest); tissue BD Gentest; host or cells: human liver microsomes
Summary of the method: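 CYP3A4 inhibition was measured in human liver microsomes (0.1 mg/mL protein) with 2 μM midazolam as the probe substrate, 1 mM NAPDH, 3.3 mM MgCl2 and 100 mM potassium phosphate buffer (pH 7.4), incubated 10 min at 37° C. After acetonitrile treatment, metabolite was quantified by LC/MS/MS against a tolbutamide internal standard. Percent inhibition at 6 concentrations gave IC50 by SigmaPlot non-linear regression.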

human CYP11B2 = biological target: T7, human CYP11B2 (Homo sapiens, UniProt P19099); experiment: IC50 vs CYP11B2 by measurement of aldosterone synthesis in V79 cells; assay type: cell-based; settings: V79 cells expressing human CYP11B2, 750 nM DOC, aldosterone HTRF
T7 construct: expressed in transfected cells
T7 sequence (P19099 25-503): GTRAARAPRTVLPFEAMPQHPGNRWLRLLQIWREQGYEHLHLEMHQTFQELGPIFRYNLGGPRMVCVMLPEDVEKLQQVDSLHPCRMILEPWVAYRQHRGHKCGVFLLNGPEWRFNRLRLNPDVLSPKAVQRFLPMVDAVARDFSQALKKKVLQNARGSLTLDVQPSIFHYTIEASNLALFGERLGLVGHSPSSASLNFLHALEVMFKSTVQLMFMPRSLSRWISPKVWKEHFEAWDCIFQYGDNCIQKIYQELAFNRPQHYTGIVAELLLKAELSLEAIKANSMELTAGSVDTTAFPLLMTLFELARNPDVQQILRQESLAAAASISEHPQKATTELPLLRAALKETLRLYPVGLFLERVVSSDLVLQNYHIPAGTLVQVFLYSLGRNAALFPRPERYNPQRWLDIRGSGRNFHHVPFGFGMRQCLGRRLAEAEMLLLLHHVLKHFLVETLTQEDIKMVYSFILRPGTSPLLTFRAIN
Summary of the method: as §2

T4 sequence (P33261 whole entry): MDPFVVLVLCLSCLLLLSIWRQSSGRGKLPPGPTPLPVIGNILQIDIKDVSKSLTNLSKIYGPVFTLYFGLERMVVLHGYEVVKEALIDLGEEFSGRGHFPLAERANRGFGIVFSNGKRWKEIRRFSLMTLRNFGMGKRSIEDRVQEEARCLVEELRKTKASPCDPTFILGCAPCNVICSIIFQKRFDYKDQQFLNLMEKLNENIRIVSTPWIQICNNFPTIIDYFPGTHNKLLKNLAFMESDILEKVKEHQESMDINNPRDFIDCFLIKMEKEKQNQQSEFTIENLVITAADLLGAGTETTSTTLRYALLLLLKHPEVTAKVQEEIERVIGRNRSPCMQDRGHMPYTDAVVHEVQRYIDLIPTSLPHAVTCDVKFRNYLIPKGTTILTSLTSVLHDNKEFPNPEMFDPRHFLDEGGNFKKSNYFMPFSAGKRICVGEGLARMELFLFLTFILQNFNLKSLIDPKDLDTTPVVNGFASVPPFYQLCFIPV
T2 sequence (P10635 whole entry): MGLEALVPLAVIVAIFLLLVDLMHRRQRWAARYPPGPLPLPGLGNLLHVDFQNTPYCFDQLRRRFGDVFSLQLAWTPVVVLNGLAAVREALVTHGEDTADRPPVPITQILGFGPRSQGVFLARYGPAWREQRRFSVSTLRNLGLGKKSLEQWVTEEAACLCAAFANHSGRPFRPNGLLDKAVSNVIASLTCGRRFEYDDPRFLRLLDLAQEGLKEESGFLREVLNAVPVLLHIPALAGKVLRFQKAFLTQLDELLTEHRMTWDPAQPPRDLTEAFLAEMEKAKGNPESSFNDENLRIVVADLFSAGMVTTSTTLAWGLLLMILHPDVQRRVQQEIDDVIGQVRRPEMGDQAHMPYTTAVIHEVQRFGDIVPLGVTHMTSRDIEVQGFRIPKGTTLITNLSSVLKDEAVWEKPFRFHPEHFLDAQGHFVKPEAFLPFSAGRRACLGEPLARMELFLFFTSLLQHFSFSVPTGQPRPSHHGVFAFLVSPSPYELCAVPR
T1 sequence (P11712 whole entry): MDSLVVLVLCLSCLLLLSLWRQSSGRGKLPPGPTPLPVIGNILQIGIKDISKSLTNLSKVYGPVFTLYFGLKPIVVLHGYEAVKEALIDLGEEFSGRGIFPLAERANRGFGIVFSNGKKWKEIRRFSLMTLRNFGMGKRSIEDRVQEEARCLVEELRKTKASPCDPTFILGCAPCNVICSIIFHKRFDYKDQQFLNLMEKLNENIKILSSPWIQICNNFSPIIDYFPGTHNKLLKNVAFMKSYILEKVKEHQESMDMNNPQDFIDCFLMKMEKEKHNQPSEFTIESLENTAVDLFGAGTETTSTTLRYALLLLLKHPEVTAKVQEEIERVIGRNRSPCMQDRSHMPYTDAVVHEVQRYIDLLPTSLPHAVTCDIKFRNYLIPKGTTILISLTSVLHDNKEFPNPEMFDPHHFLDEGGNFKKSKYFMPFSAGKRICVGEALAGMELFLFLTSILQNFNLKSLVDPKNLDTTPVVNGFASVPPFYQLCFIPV
T6 sequence (P08684 whole entry): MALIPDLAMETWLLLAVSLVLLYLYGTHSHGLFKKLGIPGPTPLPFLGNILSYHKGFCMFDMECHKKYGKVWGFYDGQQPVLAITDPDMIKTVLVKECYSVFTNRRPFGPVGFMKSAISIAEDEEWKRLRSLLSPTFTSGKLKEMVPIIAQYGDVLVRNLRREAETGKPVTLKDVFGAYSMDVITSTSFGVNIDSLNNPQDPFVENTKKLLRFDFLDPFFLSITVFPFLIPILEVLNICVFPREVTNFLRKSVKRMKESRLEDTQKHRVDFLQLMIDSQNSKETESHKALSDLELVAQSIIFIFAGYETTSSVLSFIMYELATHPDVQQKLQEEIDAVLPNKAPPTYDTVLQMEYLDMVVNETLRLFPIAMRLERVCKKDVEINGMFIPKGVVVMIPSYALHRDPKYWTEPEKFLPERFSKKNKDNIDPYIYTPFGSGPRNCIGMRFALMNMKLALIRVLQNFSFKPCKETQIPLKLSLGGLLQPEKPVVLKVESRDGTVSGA

Row | SMILES | IC50 (CYP2C9) [µM] | IC50 (CYP2D6) [µM] | IC50 (CYP1A2) [µM] | IC50 (CYP2C19) [µM] | IC50 (human CYP11B1) [µM] | IC50 (CYP3A4) [nM] | IC50 (human CYP11B2) [µM]
1 | C[C@@H](c1ccccc1CN1CCC(F)CC1)n1cncc1C(=O)N1CCC2NCCO[C@@H]2C1 (some centres unmarked) [Compound 45] | > 10 | > 10 | > 10 | > 10 | > 50 | 7.7 | > 50
2 | C[C@@H](c1ccccc1C(C)(C)F)n1cncc1C(=O)N1CCC2NCCO[C@@H]2C1 (some centres unmarked) [Compound 46] | > 10 | 5.8 | > 10 | > 10 | > 50 | 10.9 | 23.1
3 | CC(C)c1ccccc1[C@H](C)n1cncc1C(=O)N1CCC2NCCO[C@@H]2C1 (some centres unmarked) [Compound 47] | > 10 | 9.25 | > 10 | > 10 | 45.3 | 8.5 | 9.02
4 | C[C@@H](c1ccccc1C1CCCC1)n1cncc1C(=O)N1CCC2NCCO[C@@H]2C1 (some centres unmarked) [Compound 48] | > 10 | > 10 | > 10 | > 10 | 11.3 | 5.5 | 15.5
5 | C[C@@H](c1ccccc1-c1ccc(F)cc1)n1cncc1C(=O)N1CCC(F)(CN2CCOCC2)CC1 [Compound 49] | > 10 | ≥ 10 | > 10 | 9.54 | 6.03 | 3.7 | 36.3
6 | C[C@@H](c1ccccc1-c1ccc(F)cc1)n1cncc1C(=O)N1CCC2NC(=O)COC2(C)C1 (some centres unmarked) [Compound 51] | > 10 | > 10 | > 10 | > 10 | 20.8 | 4.8 | > 50
7 | C[C@@H](c1ccccc1-c1ccc(F)cc1)n1cncc1C(=O)N1CCC[C@H]2OCCN[C@@H]2C1 [Compound 52] | > 10 | > 10 | > 10 | > 10 | 3.93 | 3.2 | > 50
8 | C[C@@H](c1ccccc1-c1ccc(F)cc1)n1cncc1C(=O)N1CCC[C@@H]2OCCN[C@H]2C1 [Compound 53] | > 10 | > 10 | > 10 | > 10 | 16.4 | 11 | > 50
